Experimental data from patent US5216183A, “Cyclopentanone/cyclopentenone derivative” (Teijin Limited, priority 1988, dated 1993).

Test system: human osteoblasts (KK-3, 18PDL)
Assay: Measurement of bone formation activity (KK-3, 14 days)
Assay type: cell-based
Description: Human osteoblasts (KK-3, 18PDL) were cultured in an α-MEM containing 10% fetal calf serum. After the growth became stationary, the compound was added in a given concentration in the presence of 2 mM α-glycerophosphate and treated for 14 days. The cell phase was washed with physiological saline, and the alkaline phosphatase activity (ALP) was measured through the absorption of OD415. Then, calcium (Ca) and phosphorus (P) were extracted with a 2N hydrochloric acid and quantitatively determined.

[1] = Table 35, 10^-5 M, control 1.23 ± 0.02
[2] = Table 35, 10^-5 M, control 3.00 ± 1.00
[3] = Table 35, 10^-6 M, control 1.23 ± 0.02
[4] = Table 35, 10^-6 M, control 3.00 ± 1.00
[5] = Table 35, 10^-6 M, control 5.67 ± 0.58
[6] = Table 36, 10^-6 M, control 1.17 ± 0.03
[7] = Table 36, 10^-6 M, control 2.33 ± 1.15
[8] = Table 36, 10^-7 M, control 1.17 ± 0.03
[9] = Table 36, 10^-7 M, control 2.33 ± 1.15
[10] = Table 36, 10^-7 M, control 5.00 ± 0.00
[11] = Table 26, 10^-6 M, control 0.27 ± 0.04
[12] = Table 26, 10^-6 M, control 30.68 ± 3.33
[13] = Table 26, 10^-6 M, control 45.61 ± 6.19
[14] = Table 26, 10^-7 M, control 0.27 ± 0.04
[15] = Table 26, 10^-7 M, control 45.61 ± 6.19
[16] = Table 28, 10^-6 M, control 4.33 ± 0.58

With CC(C)OC(=O)OC(/C=C/C(O)CCCO)C1C(=O)C(Sc2nccn2C)=CC1(O)CCCCOc1ccccc1 (stereo not drawn) the ALP [1] was 0.165 OD415 /dish, the Ca [2] was 136.67 μg/dish and the ALP [3] was 1.24 ± 0.03 OD415 /dish. For the same compound, the Ca [4] was 54.67 ± 2.08 μg/dish and the P [5] was 35.00 ± 2.00 μg/dish.

In the case of CSC1=CC(O)(CCCCOc2ccccc2)C(C(/C=C/C(O)CCCO)OC(=O)OC(C)C)C1=O (stereo not drawn), the ALP [1] is reported as 0.18 OD415 /dish, the Ca [2] is reported as 109.67 μg/dish and the ALP [3] is reported as 1.22 ± 0.06 OD415 /dish. For the same compound, the Ca [4] was 25.00 ± 1.73 μg/dish and the P [5] was 19.67 ± 1.15 μg/dish.

Compound Cn1ccnc1SC1=CC(O)(CCCCOc2ccccc2)C(=CC=C2CCCCC2)C1=O (stereo not drawn) has an ALP [6] of 1.09 OD415 /dish, a Ca [7] of 15.33 μg/dish and an ALP [8] of 1.19 ± 0.06 OD415 /dish. The Ca [9] was 3.33 ± 0.58 μg/dish and the P [10] was 5.67 ± 0.58 μg/dish.

Cn1ccnc1SC1=CC(O)(CCCCOc2ccccc2)C(=C/C=C/CO)C1=O (stereo not drawn) showed an ALP [6] of 1.18 OD415 /dish, a Ca [7] of 37.33 μg/dish and an ALP [8] of 1.20 ± 0.03 OD415 /dish. For the same compound, the Ca [9] was 2.33 ± 0.58 μg/dish and the P [10] was 4.33 ± 0.58 μg/dish.

For Cn1ccnc1SC1=CC(O)(CCCCOc2ccccc2)C(C(O)C2=C(C(C)(C)O)CCCC2)C1=O (stereo not drawn), the ALP (Table 36, 10^-5 M, control 1.17 ± 0.03) was 0.87 OD415 /dish, the Ca (Table 36, 10^-5 M, control 2.33 ± 1.15) was 50.67 μg/dish and the ALP [6] was 1.20 ± 0.05 OD415 /dish. The Ca [7] was 2.00 ± 0.00 μg/dish and the P (Table 36, 10^-6 M, control 5.00 ± 0.00) was 5.00 ± 1.00 μg/dish.

With CCOc1ccc2nc(SC3=CC(O)(CCCCOc4ccccc4)C(=CC=CC(O)CCCO)C3=O)sc2c1 (stereo not drawn) [drawing 1068] the ALP [11] was 0.10 ± 0.01 OD413 /dish, the P [12] was 41.45 ± 7.21 μg/dish and the Ca [13] was 81.88 ± 8.47 μg/dish. It also gave an ALP [14] of 0.34 ± 0.06 OD413 /dish and a Ca [15] of 61.19 μg/dish.

Cn1ccnc1SC1=CC(O)(CCCCOc2ccccc2)C(=CC=CC(O)CCCO)C1=O (stereo not drawn) [drawing 1069] showed an ALP [11] of 0.48 ± 0.04 OD413 /dish, a P [12] of 46.43 ± 1.41 μg/dish and a Ca [13] of 79.83 ± 0.58 μg/dish. For the same compound, the ALP [14] was 0.33 OD413 /dish and the Ca [15] was 61.95 μg/dish.

In the case of O=C1C(SC2CCCCC2)=CC(O)(CCCCOc2ccccc2)C1=CC=CC(O)CCCO (stereo not drawn) [drawing 1070], the ALP (Table 27, 10^-6 M, control 0.58 ± 0.03) is reported as 0.64 ± 0.05 OD413 /dish, the P (Table 27, 10^-6 M, control 11.50 ± 1.73) is reported as 24.83 ± 2.47 μg/dish and the Ca (Table 27, 10^-6 M, control 11.83 ± 3.18) is reported as 33.50 ± 3.91 μg/dish. It also gave an ALP (Table 27, 10^-7 M, control 0.58 ± 0.03) of 0.53 OD413 /dish and a Ca (Table 27, 10^-7 M, control 11.83 ± 3.18) of 19.67 μg/dish.

For Cn1ccnc1SC1=CC(O)(CCCCOc2ccccc2)C(C(O)C=CC(O)CCCO)C1=O (stereo not drawn) [drawing 1072], the ALP (Table 28, 10^-6 M, control 0.72 ± 0.01) was 0.76 ± 0.08 OD413 /dish, the Ca [16] was 26.17 ± 3.25 μg/dish and the P [16] was 19.33 ± 2.02 μg/dish. The ALP (Table 28, 10^-7 M, control 0.72 ± 0.01) was 0.81 OD413 /dish and the Ca (Table 28, 10^-7 M, control 4.33 ± 0.58) was 1.17 μg/dish.

For COC(=O)COc1cccc(C=C2C(=O)C(SC)=CC2(O)CCCCOc2ccccc2)c1 (stereo not drawn) [drawing 1073], the ALP (Table 29, 10^-7 M, control 0.77 ± 0.20) was 0.52 ± 0.10 OD413 /dish, the P (Table 29, 10^-7 M, control 18.64 ± 3.16) was 21.72 ± 8.88 μg/dish and the Ca (Table 29, 10^-7 M, control 31.26 ± 3.00) was 36.18 ± 14.29 μg/dish. The ALP (Table 29, 10^-8 M, control 0.77 ± 0.20) was 0.64 OD413 /dish and the Ca (Table 29, 10^-8 M, control 31.26 ± 3.00) was 49.16 ± 26.04 μg/dish.

With CCCCC1=C(Sc2nccn2C)C(=O)C(=CC=CC(O)CCCO)C1(O)CCCCOc1ccccc1 (stereo not drawn) [drawing 1079] the ALP (Table 31, 10^-7 M, control 0.18 ± 0.06) was 0.12 ± 0.01 OD415 /dish, the Ca (Table 31, 10^-7 M, control 1.88 ± 0.31) was 4.85 ± 0.84 μg/dish and the P (Table 31, 10^-7 M, control 4.73 ± 0.37) was 6.68 ± 0.34 μg/dish. The ALP (Table 31, 10^-8 M, control 0.18 ± 0.06) was 0.17 OD415 /dish and the Ca (Table 31, 10^-8 M, control 1.88 ± 0.31) was 2.46 μg/dish.

Work on CSC1=CC(O)C(=CC=CC(O)CCCO)C1=O (stereo not drawn) [drawing 1082] yielded an ALP (Table 32, 10^-5 M, control 0.80 ± 0.01) of 0.53 OD415 /dish, a Ca (Table 32, 10^-5 M, control 23.00 ± 1.00) of 57.33 ± 2.08 μg/dish and an ALP (Table 32, 10^-6 M, control 0.80 ± 0.01) of 0.81 ± 0.06 OD415 /dish. It also gave a P (Table 32, 10^-6 M, control 15.67 ± 0.58) of 16.33 ± 2.08 μg/dish and a Ca (Table 32, 10^-6 M, control 23.00 ± 1.00) of 23.00 ± 3.46 μg/dish.
